Data reported in ChEMBL document CHEMBL4371039, “Synthesis and biological evaluation of novel analogues of Gly-l-Pro-l-Glu (GPE) as neuroprotective agents” (Bioorg Med Chem Lett, 2019).
Calls of active or inactive are those of the source. The calls are words filed in the database; no cut-off is given here.

Assays:
[1] = Solubility of the compound in water; format: physicochemical; conditions: buffer
THP-1 [2] = experiment: Neuroprotective activity against Abeta (25 to 35 residues)-induced cell death in human THP1 cells assessed as cell survival at 10 uM preincubated for 2 hrs followed by Abeta (25 to 35 residues) addition and measured after 24 hrs by MTT assay (reference value: 40%); format: functional; conditions: read-out: Survival
THP-1 [3] = experiment: Cytotoxicity against human THP1 cells assessed as effect on cell viability up to 400 uM measured after 6 to 48 hrs by MTT assay; format: cell-based
[4] = Half life in human plasma; format: ADME, cell-free
THP-1 [5] = experiment: Antiinflammatory activity in human THP1 cells assessed as reduction in LPS-induced TNFalpha expression at 10 uM preincubated for 2 hrs followed by LPS addition and measured after 24 hrs by Trizol reagent based RT-PCR analysis; format: functional, cell-based
THP-1 [6] = experiment: Antiinflammatory activity in human THP1 cells assessed as reduction in Abeta (25 to 35 residues)-induced IL18 expression at 10 uM preincubated for 2 hrs followed by Abeta (25 to 35 residues) addition and measured after 24 hrs by Trizol reagent based RT-PCR analysis; format: functional, cell-based
THP-1 [7] = experiment: Antiinflammatory activity in human THP1 cells assessed as reduction in Abeta (25 to 35 residues)-induced IL-1beta expression at 10 uM preincubated for 2 hrs followed by Abeta (25 to 35 residues) addition and measured after 24 hrs by Trizol reagent based RT-PCR analysis; format: functional, cell-based
THP-1 [8] = experiment: Neuroprotective activity against H2O2-induced cell death in human THP1 cells assessed as cell survival at 10 uM preincubated for 2 hrs followed by H2O2 addition and measured after 24 hrs by MTT assay (reference value: 43%); format: functional; conditions: read-out: Survival
THP-1 [9] = experiment: Antiinflammatory activity in human THP1 cells assessed as reduction in LPS-induced IL18 expression at 10 uM preincubated for 2 hrs followed by LPS addition and measured after 24 hrs by Trizol reagent based RT-PCR analysis; format: functional, cell-based
THP-1 [10] = experiment: Antiinflammatory activity in PMA-differentiated human THP1 cells assessed as reduction in MCP1 expression at 10 uM preincubated for 4 hrs followed by PMA addition and measured after 20 hrs by Trizol reagent based RT-PCR analysis; format: functional, cell-based
THP-1 [11] = experiment: Immunostimulatory activity in PMA-differentiated human THP1 cells assessed as increase in LPS-induced IL-4 expression at 10 uM preincubated for 2 hrs followed by LPS addition and measured after 24 hrs by Trizol reagent based RT-PCR analysis; format: functional, cell-based
THP-1 [12] = experiment: Antiinflammatory activity in PMA-differentiated human THP1 cells assessed as reduction in IL-18 expression at 10 uM preincubated for 4 hrs followed by PMA addition and measured after 20 hrs by Trizol reagent based RT-PCR analysis; format: functional, cell-based
THP-1 [13] = experiment: Antiinflammatory activity in human THP1 cells assessed as reduction in LPS-induced IL-1beta expression at 10 uM preincubated for 2 hrs followed by LPS addition and measured after 24 hrs by Trizol reagent based RT-PCR analysis; format: functional, cell-based
THP-1 [14] = experiment: Antiinflammatory activity in human THP1 cells assessed as reduction in Abeta (25 to 35 residues)-induced TNFalpha expression at 10 uM preincubated for 2 hrs followed by Abeta (25 to 35 residues) addition and measured after 24 hrs by Trizol reagent based RT-PCR analysis; format: functional, cell-based
THP-1 [15] = experiment: Antiinflammatory activity in PMA-differentiated human THP1 cells assessed as reduction in TNFalpha expression at 10 uM preincubated for 4 hrs followed by PMA addition and measured after 20 hrs by Trizol reagent based RT-PCR analysis; format: functional, cell-based
THP-1 [16] = experiment: Antiinflammatory activity in PMA-differentiated human THP1 cells assessed as reduction in LPS-induced IL-1beta expression at 10 uM preincubated for 2 hrs followed by LPS addition and measured after 24 hrs by Trizol reagent based RT-PCR analysis; format: functional, cell-based
THP-1 [17] = experiment: Immunostimulatory activity in PMA-differentiated human THP1 cells assessed as increase in LPS-induced IL-10 expression at 10 uM preincubated for 2 hrs followed by LPS addition and measured after 24 hrs by Trizol reagent based RT-PCR analysis; format: functional, cell-based
THP-1 [18] = experiment: Antiinflammatory activity in PMA-differentiated human THP1 cells assessed as reduction in LPS-induced IL18 expression at 10 uM preincubated for 2 hrs followed by LPS addition and measured after 24 hrs by Trizol reagent based RT-PCR analysis; format: functional, cell-based
THP-1 [19] = experiment: Antiinflammatory activity in PMA-differentiated human THP1 cells assessed as reduction in IL-1beta expression at 10 uM preincubated for 4 hrs followed by PMA addition and measured after 20 hrs by Trizol reagent based RT-PCR analysis; format: functional, cell-based
THP-1 [20] = experiment: Antiinflammatory activity in human THP1 cells assessed as reduction in Abeta (25 to 35 residues)-induced MCP1 expression at 10 uM preincubated for 2 hrs followed by Abeta (25 to 35 residues) addition and measured after 24 hrs by Trizol reagent based RT-PCR analysis; format: functional, cell-based
THP-1 [21] = experiment: Immunostimulatory activity in PMA-differentiated human THP1 cells assessed as increase in MCP1 expression at 10 uM preincubated for 4 hrs followed by PMA addition and measured after 20 hrs by Trizol reagent based RT-PCR analysis; format: functional, cell-based
THP-1 [22] = experiment: Immunostimulatory activity in PMA-differentiated human THP1 cells assessed as increase in TNFalpha expression at 10 uM preincubated for 4 hrs followed by PMA addition and measured after 20 hrs by Trizol reagent based RT-PCR analysis; format: functional, cell-based
THP-1 [23] = experiment: Antiinflammatory activity in PMA-differentiated human THP1 cells assessed as reduction in IL4-induced IL-10 expression at 10 uM preincubated for 2 hrs followed by IL4 addition and measured after 6 hrs by Trizol reagent based RT-PCR analysis; format: functional, cell-based
THP-1 [24] = experiment: Antiinflammatory activity in PMA-differentiated human THP1 cells assessed as reduction in INFgamma/LPS-induced IL-1beta expression at 10 uM preincubated for 2 hrs followed by INFgamma/LPS addition and measured after 6 hrs by Trizol reagent based RT-PCR analysis; format: functional, cell-based
THP-1 [25] = experiment: Antiinflammatory activity in PMA-differentiated human THP1 cells assessed as reduction in INFgamma/LPS-induced IL-8 expression at 10 uM preincubated for 2 hrs followed by INFgamma/LPS addition and measured after 6 hrs by Trizol reagent based RT-PCR analysis; format: functional, cell-based
THP-1 [26] = experiment: Immunostimulatory activity in PMA-differentiated human THP1 cells assessed as increase in IL-18 expression at 10 uM preincubated for 4 hrs followed by PMA addition and measured after 20 hrs by Trizol reagent based RT-PCR analysis; format: functional, cell-based
THP-1 [27] = experiment: Antiinflammatory activity in PMA-differentiated human THP1 cells assessed as reduction in IL4-induced CCL18 expression at 10 uM preincubated for 2 hrs followed by IL4 addition and measured after 6 hrs by Trizol reagent based RT-PCR analysis; format: functional, cell-based
THP-1 [28] = experiment: Antiinflammatory activity in PMA-differentiated human THP1 cells assessed as reduction in IL4-induced CCL22 expression at 10 uM preincubated for 2 hrs followed by IL4 addition and measured after 6 hrs by Trizol reagent based RT-PCR analysis; format: functional, cell-based
THP-1 [29] = experiment: Immunostimulatory activity in PMA-differentiated human THP1 cells assessed as increase in IL-1beta expression at 10 uM preincubated for 4 hrs followed by PMA addition and measured after 20 hrs by Trizol reagent based RT-PCR analysis; format: functional, cell-based

Structure (SMILES)	solubility [1]	Activity (THP-1 [3])	half-life [4] [h]	Activity (THP-1 [6])	viability at 10 µM (THP-1 [8]) [%]	Activity (THP-1 [9])	Activity (THP-1 [10])	Activity (THP-1 [12])	Activity (THP-1 [13])	Activity (THP-1 [14])	Activity (THP-1 [15])	Activity (THP-1 [19])	also measured
NCCN1CCC[C@H]1C(=O)N[C@@H](CCC(=O)O)C(=O)O.O=C(O)C(F)(F)F	Soluble	Non-Toxic	6.6	–	–	–	–	–	–	–	–	–	viability at 10 µM (THP-1 [2]): 76%
NCC(=O)N1CCC[C@H]1C(=O)N[C@@H](CCC(=O)O)C(=O)O.O=C(O)C(F)(F)F.O=C(O)C(F)(F)F	Soluble	Non-Toxic	4.5	inactive	100	inactive	Active	Active	Active	inactive	Active	Active	Activity (THP-1 [5]): Active; Activity (THP-1 [7]): Active; Activity (THP-1 [11]): Active; Activity (THP-1 [16]): Active; Activity (THP-1 [17]): Active; Activity (THP-1 [18]): Active
NCCN1CCC[C@H]1C(=O)N[C@@H](CCC(=O)O)C(=O)O.O=C(O)C(F)(F)F.O=C(O)C(F)(F)F	Soluble	Non-Toxic	11.8	–	90	–	–	–	–	–	–	–	–
NCCN1CCC[C@H]1C(=O)N[C@@H](CCC(=O)O)C(=O)O	–	–	–	inactive	–	inactive	Active	Active	Active	Active	Active	Active	Activity (THP-1 [20]): Active; Activity (THP-1 [21]): Active; Activity (THP-1 [22]): Active; Activity (THP-1 [23]): inactive; Activity (THP-1 [24]): Active; Activity (THP-1 [25]): Active; Activity (THP-1 [26]): Active; Activity (THP-1 [27]): inactive; Activity (THP-1 [28]): inactive; Activity (THP-1 [29]): Active
